Entries after “also recorded” stand apart in the source; their conditions may differ.
Experiments:
[1] = system: NS-SV-AC cells; assay: Intracellular ROS levels (DFDA assay), NS-SV-AC cells; type: cell-based, human; settings: EGCG 15-200 μM, 60 minutes
Description: Measurement of intracellular ROS levels. The ROS assay measures the accumulation of intracellular ROS levels. The non-fluorescent dye DFDA passively diffuses into cells, where the acetates are cleaved by intracellular esterases. […] Thus, values of the fluorescence in the cell cultures are constantly rising in this assay. […] The intracellular ROS levels were measured by using a fluorescence plate reader (BIO-TEK FL600, Bio-Tek Instruments, Inc., Winooski, Vt.), at an excitation wavelength of 485 nm and an emission wavelength of 530 nm.

[2] = system: MCF7 cells; assay: BrdU incorporation assay, MCF7 cells; type: cell-based, human; settings: increasing EGCG
Description: DNA synthesis analysis using BrdU incorporation method. The BrdU cell proliferation kit was purchased from Oncogene Research Products, Boston, Mass. Cells were culture in 96 well plates with 10^4 cells/well. After EGCG and GTPPs treatments, cells were labeled by BrdU, reacted with BrdU antibody and the color reaction was carried out according to the protocol provided by the manufacturer. The coloration was measure by a Thermo MAX microplate reader using wavelengths 450 nm-562 nm.

[3] = system: caspase 3; assay: Caspase 3 activity assay, normal human epidermal keratinocytes; type: cell-based; settings: EGCG 0 to 200 μM or 0.2 mg/ml GTPPs, 24 h
Description: (§1) Caspase 3 activity assay. The Caspase 3 Apoptosis Detection Kit was purchased from Santa Cruz Biotech. Inc. In a 24 well tissue culture plate, 10^5 cells/well of control or treated cells in triplicates were plated. […] To each well, 100 μl of 2×reaction buffer was added with 10 mM DTT. Finally, 5 μl of DEVD-AFC substrate was added to each well containing cell lysates. The reaction mixtures were incubated for 1 hour at 37° C. The caspase 3 activity in each well was measured using a fluorescence plate reader set for 405 nanometer (nm) excitation and 505 nm emission.
as §1, with “of” for “of control or treated”, “[…]” for “10 mM”, “fluorescence microplate” for “fluorescence plate”, “405 nm” for “405 nanometer (nm)”
Caspase 3 activity assay. […] The reaction mixtures were incubated for 1 hour at 37° C., and caspase 3 activity in each well was measured using a fluorescence micro-plate reader at a wavelength of 405 nm for excitation and 505 nm for emission.

[4] = system: Apaf-1; assay: Western blot of Apaf-1 in mammary epithelial cells; type: cell-based, human; settings: 15 μM EGCG, 24 h
Description: Western blot analysis. The keratinocytes and the mammary epithelial cells were placed in KGM-2 and MEGM, respectively, overnight prior to treatment. Cells were lysed, after 24-hour treatment, in RIPA buffer (1% NP-40, 1% sodium deoxycholate, 0.1% SDS, 0.15 M NaCl, 0.01 M sodium phosphate, pH 7.2, and 1% Trasylol) containing proteinase inhibitors (1 mM PMSF, 1 μg/ml each of aprotinin, leupeptin, and pepstatin). The concentration of protein in each sample was determined using the BioRad DC Protein Assay and spectrophotometry. 50 μg of protein from each sample and a BioRad molecular weight standard marker were run on a 10% SDS-PAGE, followed by transfer to nitrocellulose membranes. Nonspecific binding to the membranes was blocked with 10% nonfat milk. Primary polyclonal (rabbit) antibodies and a horseradish peroxidase-conjugated goat anti-rabbit secondary antibody were used in conjunction with the ECL Chemiluminescence Kit (Amersham Pharmacia Biotech, New Jersey) and membranes were exposed to radiographic films for detection. Western blots were digitized for comparison of the intensity for each band using the ImageTool image analysis software program (University of Texas Health Science Center, San Antonio, Tex.). The integrated density of each band was measured using identical 1480 pixel areas of each Apfa-1 or Actin band at a scale of densities from 0 to 255. […]

[5] = system: SOD; assay: SOD activity assay in cell lysates; type: cell-based, human; settings: 50 μM EGCG, 30 minutes; NHEK, OSC-2, OSC-4
Description: Assays for SOD and catalase activities. Cells (1×10^6 cells/well) were incubated with or without EGCG (50 μM) in FilterCap 50 ml flasks (Nagel Nunc International, Rochester, N.Y.) for 30 minutes at 37° C. After the incubation, cells were harvested and disrupted in 100 μl of 10 mM Tris-HCl (pH 7.4) containing 0.1%(v/v) Triton X-100, 10 μg/ml leupeptin, 10 μg/ml pepstatin A and 100 mM phenylmethylsulfonyl fluoride by three cycles of freezing/thawing. After centrifugation at 17,000×g for 20 minutes at 4° C., the supernatants were used for SOD and catalase assays using the SOD Assay Kit-WST (Dojindo Molecular Technologies, Inc., Gaithersburg, Md.) and the AMPLEX Red Catalase Assay Kit (Molecular Probes), respectively. The activities of SOD and catalase were calibrated using a standard curve prepared with purified human SOD and catalase. The activities of SOD and catalase were expressed as units (U)/10^6 cells.
Assays for SOD and catalase activities. Cells (10^5 cells/well) were incubated with or without EGCG (50 μM) in 24-well culture plates for desirable time periods at 37° C. After the incubation, cells were harvested and disrupted in 100 μl of 10 mM Tris-HCl (pH 7.4) containing 0.1% (v/v) Triton ×-100, 10 μg/ml leupeptin, 10 μg/ml pepstatin A and 100 mM PMSF by three cycles of freezing/thawing. […] The activities of SOD and catalase were expressed as units (U)/10^6 cells.

O=C(O[C@@H]1Cc2c(O)cc(O)cc2O[C@@H]1c1cc(O)c(O)c(O)c1)c1cc(O)c(O)c(O)c1 [EGCG, (−)-epigallocatechin-3-gallate]
intracellular ROS levels [1]: inhibit ROS production at background levels; also recorded: reduced the ROS to background levels
BrdU incorporation [2]: able in incorporate BrdU efficiently
caspase 3 activity [3]: only exhibited basal levels of caspase 3 activities; also recorded: not significantly affected
Apaf-1 protein level increase above control (densitometry) [4]: 47%
SOD activity [5]: did not alter SOD activity

— patent publication US20040191842A1, “Chemopreventive and therapeutic aspects of polyphenolic compositions and assays” (Medical College of Georgia Research Institute, Inc., priority 2002, published 2004)
